Reference: US8013153B2, “Substituted pyrimidine kinase inhibitors” (Janssen Pharmaceutica, N.V., priority 2006, dated 2011)
“And” between values parts separate entries of the source, which are not always exact repeats. Equal entries are not always repeated. “Also recorded” adds a separate entry of the source.

How the values were obtained:
HCT-116 colon carcinoma = assay: Inhibition of in vitro cell proliferation (HCT116); assay type: cell-based, human; conditions: Homo sapiens, HCT-116, 14C-thymidine incorporation;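 also: cells exposed to compound for 24 h, then 14C-thymidine added for a further 24 h and its uptake into DNA counted by scintillation, DMSO-only wells as control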
[1] = system: HCT116 human colorectal carcinoma; assay: In vivo inhibition of tumor growth, HCT116 model; parameters: species or system athymic nude mice; conditions: 10 mg/kg daily, oral
From the text: Female Nu/Nu˜nuBR athymic nude mice (obtained from Charles River Laboratories), at the age of 5-6 weeks were feed water and an irradiated standard rodent diet ad libitum, and housed in specific pathogen-free conditions, according to the guidelines of the American Association for Accreditation of Lab Animal Care (AALAC).
Mice were implanted subcutaneously in the right hind flank with the various tumor cell suspensions in HBSS containing 10% FBS: A431 human epidermoid carcinoma (4×10^6 cells/mouse), HCT116 human colorectal carcinoma (4×10^6 cells/mouse) and A375 human skin melanoma (2×10^6 cells/mouse). […]
The tumors were allowed to establish growth for 10 to 14 days. Tumor size was measured every 3 days. […]
Tumor measurements and body weights were recorded individually (2×/week) during the treatment period of the experiment. Tumors were measured using a digital caliper. Data was recorded/calculated using Study Director software (StudyLog Systems, Inc.) and graphs were created in GraphPad Prizm.
The volume of each tumor in an animal was calculated according to the formula: (D×d^2)/2, where the diameters were determined from two orthogonal measurements on each tumor. The mean tumor volume was determined by averaging all tumor volumes in each group. The mean body weight was determined by averaging all body weights in each group. […]

V600E Raf mutant = V600E Raf mutant (Homo sapiens, UniProt P15056, V600E); assay: RAF Kinase Screening Assay (V600E Raf mutant); conditions: Compound 50 tested at 30 μM
B-Raf = B-Raf (Homo sapiens, UniProt P15056); assay: RAF Kinase Screening Assay (B-Raf); conditions: Compound 50 tested at 30 μM
A375 malignant melanoma = assay: Inhibition of in vitro cell proliferation (A375); assay type: cell-based, human; conditions: Homo sapiens, A-375, 14C-thymidine incorporation;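 also: cells plated for 24 h, given compound for 24 h, then labelled with 14C-thymidine for another 24 h, with DMSO-only wells as control and counts read by scintillation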
C-Raf = C-Raf (Homo sapiens, UniProt P04049); assay: RAF Kinase Screening Assay (C-Raf); conditions: Compound 50 tested at 30 μM
[2] = system: VEGF-induced angiogenesis; assay: Mouse Corneal Micropocket Assay; assay type: in vivo, C57BL/6J mice
From the text: This method has been described in detail (see Kenyon B, Voest E E, Chen C C, Flynn E, Folkman J and D'Amato R J, A model of angiogenesis in the mouse cornea, Invest. Opthalmol. Vis. Sci., 1996, 37:1625-1632; and, LaMontagne K, Littlewood-E A, Schnell C, O'Reilly T, Wyder L, Sanchez T, Probst B, Butler J, Wood A, Liau G, Billy E, Theuer A, Hla T and Wood J, Antagonism of sphingosine-1-phosphate receptors by FTY720 inhibits angiogenesis and tumor vascularization, Cancer Res., 2006, 66:221-31) and is an in vivo functional assay that provides an important link between biochemical and cellular inhibition (i.e., VEGFR-2 autophosphorylation and VEGF-dependent migration) and functional biological end points (i.e., VEGF-induced angiogenesis in vivo).
Pellets containing the slow-release polymer Hydron® and sucralfate with 180 ng rHuVEGF165 were implanted into the cornea of female C57BL/6J mice. Daily oral treatment with either Compound 50 (10 mg/kg or 100 mg/kg) or vehicle (0.5% methylcellulose) was started 24 hours later. […] After sacrifice on day 6, the vascular response was quantified using a linear reticule through the slit lamp. Inhibition was determined by the formula: Inhibition=[(0.2)(π)(new blood vessel length)(clock hours of neovessels)]
The circumferential zone was measured as clock hours with a 360° reticule (where 30° of arc equals 1 clock hour). […]

C-Raf, sequence (P04049 whole entry, species assumed): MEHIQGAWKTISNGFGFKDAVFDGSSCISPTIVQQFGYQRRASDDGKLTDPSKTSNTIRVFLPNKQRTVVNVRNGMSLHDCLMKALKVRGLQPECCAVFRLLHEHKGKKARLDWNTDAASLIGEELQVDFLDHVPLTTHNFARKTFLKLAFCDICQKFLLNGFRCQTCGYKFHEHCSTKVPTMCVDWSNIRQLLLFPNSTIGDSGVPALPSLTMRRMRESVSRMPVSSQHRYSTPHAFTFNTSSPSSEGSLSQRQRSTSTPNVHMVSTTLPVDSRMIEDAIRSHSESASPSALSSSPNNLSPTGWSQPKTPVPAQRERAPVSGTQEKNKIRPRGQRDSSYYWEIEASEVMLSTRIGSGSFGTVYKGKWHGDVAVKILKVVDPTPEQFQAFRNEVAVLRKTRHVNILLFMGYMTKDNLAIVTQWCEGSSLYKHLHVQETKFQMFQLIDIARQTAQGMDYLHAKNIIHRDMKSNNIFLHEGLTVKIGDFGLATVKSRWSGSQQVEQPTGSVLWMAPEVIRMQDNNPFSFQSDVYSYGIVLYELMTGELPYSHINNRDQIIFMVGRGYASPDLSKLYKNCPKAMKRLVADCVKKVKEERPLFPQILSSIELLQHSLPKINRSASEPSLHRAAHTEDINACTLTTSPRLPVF
B-Raf, sequence (P15056 whole entry, species assumed): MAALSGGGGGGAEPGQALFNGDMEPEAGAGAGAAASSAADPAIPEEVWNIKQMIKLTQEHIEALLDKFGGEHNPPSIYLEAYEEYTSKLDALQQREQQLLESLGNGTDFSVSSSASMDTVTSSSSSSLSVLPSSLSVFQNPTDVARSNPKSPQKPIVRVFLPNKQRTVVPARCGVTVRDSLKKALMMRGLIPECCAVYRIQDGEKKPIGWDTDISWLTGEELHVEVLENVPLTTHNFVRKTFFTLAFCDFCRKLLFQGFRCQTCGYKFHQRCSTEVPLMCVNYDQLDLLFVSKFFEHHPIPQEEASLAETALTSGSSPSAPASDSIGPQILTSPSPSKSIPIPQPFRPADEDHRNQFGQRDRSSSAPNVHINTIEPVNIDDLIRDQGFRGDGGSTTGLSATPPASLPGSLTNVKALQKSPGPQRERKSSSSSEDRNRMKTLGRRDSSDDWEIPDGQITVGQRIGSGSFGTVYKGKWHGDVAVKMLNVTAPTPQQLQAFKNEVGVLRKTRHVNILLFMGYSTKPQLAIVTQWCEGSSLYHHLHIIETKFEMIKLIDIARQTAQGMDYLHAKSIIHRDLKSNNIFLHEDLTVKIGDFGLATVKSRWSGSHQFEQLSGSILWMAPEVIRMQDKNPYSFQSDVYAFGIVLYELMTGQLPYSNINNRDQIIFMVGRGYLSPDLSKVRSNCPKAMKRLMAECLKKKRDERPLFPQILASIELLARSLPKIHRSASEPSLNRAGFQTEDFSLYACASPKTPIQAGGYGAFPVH
V600E Raf mutant, sequence (P15056 whole entry V600E): as the sequence (P15056 whole entry, species assumed) above, with V600E counted along it

## CCNC(=O)Nc1ccc(Oc2ncnc(N)c2/C=N/OC)cc1Cl [Cpd 50, 1-{4-[6-amino-5-(methoxyimino-methyl)-pyrimidin-4-yloxy]-2-chloro-phenyl}-3-ethyl-urea]
HCT-116 colon carcinoma
  IC50: 3.7 µM
[1]
  inhibition of tumor growth: < 50%
V600E Raf mutant
  activity against the V600E Raf mutant: no activity; also recorded: not active
B-Raf
  activity against B-Raf: no activity; also recorded: not active
A375 malignant melanoma
  IC50: 3.91 µM
C-Raf
  activity against C-Raf: no activity; also recorded: not active
[2]; 10 mg/Kg daily oral
  % Inhibition of blood vessel growth compared to the vehicle group: 15% and 15 ± 2%
[2]; 100 mg/Kg daily oral
  % Inhibition of blood vessel growth compared to the vehicle group: 83% and 83 ± 6%
